Earlier results in US20240197617A1, “ANTI-AGING COSMETIC COMPOSITION BASED ON RESVERATROL AND MAGNOLIA” (Tomcat International Limited, priority 2021, published 2024).

System: TET enzymes
Settings: study carried out on a mouse

Effect on activity of TET enzymes: stimulated the activity of TET enzymes
SMILES: C=CCc1ccc(O)c(-c2ccc(O)c(CC=C)c2)c1 [honokiol]
